Test results as given in PMC3705371, “Helicusin E, Isochromophilone X and Isochromophilone XI: New Chloroazaphilones Produced by the Fungus Bartalinia robillardoides Strain LF550” (Marine Drugs, 2013).
Read-outs that look alike come from different tables or passages of the source.

What was measured:
Septoria tritici = test: Antifungal assay, Septoria tritici (optical density); format: cell-based; conditions: for IC50: Zymoseptoria tritici, read-out: IC50 Septoria tritici
Procedure: Septoria tritici. The substances were dissolved in DMSO to a concentration of 10 mM and transferred into a 96-well microtiter plate. For screening purposes, the compounds were tested in a final concentration of 100 μM. The fungal strain S. tritici was cultured on MYG medium (1.0% malt extract, 0.4% yeast extract, 0.4% glucose·H2O, pH = 5.6) for four days, subsequently the culture was diluted to an optical density (600 nm) of 0.03 and added to the microtiter plate. After incubation for 48 h at 20 °C, the optical density was measured. The resulting values were compared to a positive (0.53 μM boscalid) and a negative control (no compound) on the same plate.

Bacillus subtilis = test: Antibacterial assay, Bacillus subtilis; format: cell-based; conditions: for IC50: Bacillus subtilis, antibacterial
Procedure: (§1) Bacillus subtilis, Staphylococcus lentus, Xanthomonas campestris and Candida albicans. The antimicrobial assays were performed as reported by Schulz et al..

Staphylococcus lentus = test: Antibacterial assay, Staphylococcus lentus; format: cell-based; conditions: for IC50: Mammaliicoccus lentus, antibacterial
Procedure: as §1

Candida albicans = test: Antifungal assay, Candida albicans; format: cell-based; conditions: for IC50: antifungal
Procedure: as §1

Trichophyton rubrum = test: Antifungal assay, Trichophyton rubrum (optical density); format: cell-based; conditions: for IC50: Trichophyton rubrum, antifungal, 72 h at 28 °C
Procedure: Trichophyton rubrum. The substances were dissolved in DMSO to a concentration of 10 mM and transferred into a 96-well microtiter plate. For screening purposes, the compounds were tested in a final concentration of 100 μM. For inoculation 5 × 10^4 spores mL^−1 from the fungal strain T. rubrum diluted in Sabouraud medium (1.0% peptone, 2.0% glucose·H2O, pH = 5.6) were added to the microtiter plate. After incubation for 72 h at 28 °C the optical density was measured.

Phosphodiesterase 4 = test: Enzyme inhibition assay PDE4; format: biochemical; conditions: for IC50: enzyme assay
Procedure: (§2) Enzyme inhibition assays PDE4 and AChE assays were performed as described by Schulz et al. and Kim et al., respectively.

Acetylcholinesterase = Acetylcholinesterase (Homo sapiens, UniProt P22303); test: biochemical; format: biochemical; conditions: for IC50: enzyme assay
Procedure: as §2

[1] = tested on: human fibroblast cell line (KIF5); test: Cytotoxicity assay (CellTiterBlue), KIF5; format: cell-based; conditions: KIF5 cells
Procedure: (§3) Cytotoxicity assays. The sensitivity of the cell lines KIF5 and HepG2 to the isolated compounds was evaluated by monitoring the metabolic activity using the CellTiterBlue Cell Viability Assay (Promega, Mannheim, Germany). The human fibroblast cell line (KIF5) was provided by the Institute for Experimental Tumor Research, Section Molecular Oncology, Kiel, Germany, and the human hepatocellular carcinoma cell line (HepG2) was obtained from the German Collection of Microorganism and Cell Cultures (DSMZ, Braunschweig, Germany). The cytotoxicity assays were performed as described by Schulz et al., apart from the cell concentration, which were 5000 KIF5 cells and 10,000 HepG2 cells per vial.

[2] = tested on: human hepatocellular carcinoma cell line (HepG2); test: Cytotoxicity assay (CellTiterBlue), HepG2; format: cell-based; conditions: HepG2 cells
Procedure: as §3

MRSA = conditions: cited from earlier work

Chain of Acetylcholinesterase (P22303 32-614, species assumed): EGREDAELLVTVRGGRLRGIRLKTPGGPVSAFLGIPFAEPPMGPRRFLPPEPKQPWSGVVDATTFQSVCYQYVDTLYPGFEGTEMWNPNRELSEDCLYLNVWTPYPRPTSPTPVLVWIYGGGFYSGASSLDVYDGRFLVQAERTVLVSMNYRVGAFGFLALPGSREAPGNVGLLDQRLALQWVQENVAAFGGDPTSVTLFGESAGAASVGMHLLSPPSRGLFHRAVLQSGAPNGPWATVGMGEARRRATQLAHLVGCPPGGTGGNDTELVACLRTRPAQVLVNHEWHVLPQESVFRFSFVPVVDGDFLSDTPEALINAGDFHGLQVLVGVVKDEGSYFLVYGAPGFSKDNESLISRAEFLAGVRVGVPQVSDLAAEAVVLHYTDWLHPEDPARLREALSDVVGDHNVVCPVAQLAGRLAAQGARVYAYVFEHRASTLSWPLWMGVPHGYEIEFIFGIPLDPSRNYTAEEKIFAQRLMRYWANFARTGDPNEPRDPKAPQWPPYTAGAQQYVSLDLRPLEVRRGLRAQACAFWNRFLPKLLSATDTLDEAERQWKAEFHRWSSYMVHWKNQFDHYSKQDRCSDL

Q: For `O=C(Nc1ccccc1-c1ccc(Cl)cc1)c1cccnc1Cl` [boscalid, reference compound], which IC50 (Septoria tritici; 48 h) is on record?
A: Its IC50 is 0.53 µM.

Q: With `O=C(N[C@H](CO)[C@H](O)c1ccc([N+](=O)[O-])cc1)C(Cl)Cl` [chloram-phenicol, reference compound] as the compound, how does the IC50 (Bacillus subtilis) read?
A: The IC50 was 1.45 µM.

Q: What about the IC50 (Staphylococcus lentus) of the same compound?
A: Its IC50 is 2.13 µM.

Q: For `CC=CC(=O)OC1CC(C)OC(=O)CCC(O)CC1=O` (stereo not drawn) [compound 6, bartanolide], which “antibacterial activity against Bacillus subtilis (in words)” value (Bacillus subtilis) is on record?
A: The value was “inactive”.

Q: What about the “antibacterial activity against Staphylococcus lentus (in words)” value (Staphylococcus lentus) of the same compound?
A: The value was “inactive”.

Q: What about the “inhibition of Candida albicans (in words)” value (Candida albicans) of the same compound?
A: Its value is “inactive”.

Q: What about the “inhibition of Septoria tritici (in words)” value (Septoria tritici) of the same compound?
A: The value was “inactive”.

Q: What about the “inhibition of Trichophyton rubrum (in words)” value (Trichophyton rubrum) of the same compound?
A: Its value is “inactive”.

Q: And the “inhibition of phosphodiesterase 4 (in words)” value (Phosphodiesterase 4)?
A: The value was “inactive”.

Q: And the “inhibition of acetylcholinesterase (in words)” value (Acetylcholinesterase)?
A: The value was “inactive”.

Q: And the “cytotoxic activity (in words)” value [1]?
A: The value was “inactive”.

Q: And the “cytotoxic activity (in words)” value [2]?
A: The value was “inactive”.

Q: With `CCC(C)C=C(C)C=CC1=CC2=C(Cl)C(=O)C(C)(O)C(=O)C2=CO1` (stereo not drawn) [deacetylsclerotiorin (2), 5-Chloro-3-[3,5-dimethyl-1,3-heptadien-1-yl]-7-hydroxy-7-methyl-6H-2-benzopyran-6,8(7H)-dione] as the compound, how does the “antibacterial activity against Bacillus subtilis (in words)” value (Bacillus subtilis) read?
A: Its value is “Weak”.

Q: And the IC50 (Bacillus subtilis)?
A: The IC50 was 38.8 µM.

Q: And the “antibacterial activity against Staphylococcus lentus (in words)” value (Staphylococcus lentus)?
A: The value was “Weak”.

Q: And the IC50 (Staphylococcus lentus)?
A: Its IC50 is 43.6 µM.

Q: What about the “inhibition of Candida albicans (in words)” value (Candida albicans) of the same compound?
A: Its value is “Significant inhibition”.

Q: What about the IC50 (Candida albicans; Candida albicans) of the same compound?
A: Its IC50 is 24 µM.

Q: What about the “inhibition of Septoria tritici (in words)” value (Septoria tritici) of the same compound?
A: Its value is “Significant inhibition”.

Q: What about the IC50 (Septoria tritici; antifungal, 48 h at 20 °C) of the same compound?
A: Its IC50 is 7.45 µM.

Q: And the “inhibition of Trichophyton rubrum (in words)” value (Trichophyton rubrum)?
A: The value was “Significant inhibition”.

Q: And the IC50 (Trichophyton rubrum)?
A: The IC50 was 2.83 µM.

Q: What about the IC50 (Phosphodiesterase 4) of the same compound?
A: The IC50 was 2.79 µM.

Q: And the IC50 (Phosphodiesterase 4; listed as 2)?
A: The IC50 was 2.8 µM.

Q: And the IC50 (Acetylcholinesterase)?
A: The IC50 was > 50 µM.

Q: What does the source list for `CCC(C)/C=C(C)/C=C/C1=CC2=C(Cl)C(=O)[C@@](C)(OC(=O)/C=C(\C)CC(=O)O)C(=O)C2=CO1` (stereo partly drawn) [helicusin A (1), helicusin A]?
A: IC50 (Bacillus subtilis): > 100 µM; IC50 (Staphylococcus lentus): > 100 µM; inhibition of Candida albicans (in words) (Candida albicans): Significant inhibition; IC50 (Candida albicans; Candida albicans): 24.4 µM; inhibition of Septoria tritici (in words) (Septoria tritici): Significant inhibition; IC50 (Septoria tritici; antifungal, 48 h at 20 °C): 7.6 µM; inhibition of Trichophyton rubrum (in words) (Trichophyton rubrum): Significant inhibition; IC50 (Trichophyton rubrum): 7.23 µM; IC50 (Phosphodiesterase 4): > 10 µM; IC50 (Acetylcholinesterase): 2.1 µM

Q: Which IC50 (Bacillus subtilis) does the source give for `CCC(C)C(O)C(C)(O)/C=C/C1=CC2=C(Cl)C(=O)[C@@](C)(OC(=O)/C=C(\C)CC(=O)O)C(=O)C2=CO1` (stereo partly drawn) [helicusin E (3), helicusin E] here?
A: Its IC50 is > 100 µM.

Q: What about the IC50 (Staphylococcus lentus) of the same compound?
A: The IC50 was > 100 µM.

Q: And the IC50 (Candida albicans; Candida albicans)?
A: Its IC50 is > 200 µM.

Q: And the IC50 (Septoria tritici; antifungal, 48 h at 20 °C)?
A: The IC50 was > 100 µM.

Q: And the IC50 (Trichophyton rubrum)?
A: Its IC50 is > 100 µM.

Q: What about the IC50 (Phosphodiesterase 4) of the same compound?
A: Its IC50 is > 10 µM.

Q: And the IC50 (Acetylcholinesterase)?
A: The IC50 was > 50 µM.

Q: For `CCC(C)/C=C(C)/C=C/C1=CC2=C(Cl)C(=O)C(C)(OC(C)=O)C(=O)C2=CN1CCCC(=O)O` (stereo not drawn) [isochromophilone IX], which MIC (MRSA) is on record?
A: The MIC was “approximately 100 μM”.

Q: For `CCC(C)/C=C(C)/C=C/C1=CC2=C(Cl)C(=O)[C@@](C)(OC(=O)/C=C(\C)CC(=O)O)C(=O)C2=CN1CCO` (stereo partly drawn) [isochromophilone X (4), isochromophilone X], which IC50 (Bacillus subtilis) is on record?
A: The IC50 was > 100 µM.

Q: And the IC50 (Staphylococcus lentus)?
A: Its IC50 is > 100 µM.

Q: What about the IC50 (Candida albicans; Candida albicans) of the same compound?
A: Its IC50 is > 100 µM.

Q: And the IC50 (Septoria tritici; antifungal, 48 h at 20 °C)?
A: The IC50 was > 100 µM.

Q: What about the IC50 (Trichophyton rubrum) of the same compound?
A: The IC50 was > 80 µM.

Q: And the IC50 (Phosphodiesterase 4)?
A: The IC50 was 11.7 µM.

Q: What does the source list for `CCC(C)/C=C(C)/C=C/C1=CC2=C(Cl)C(=O)C(C)(OC(=O)/C=C(\C)CC(=O)O)C(=O)C2(O)CO1` (stereo not drawn) [isochromophilone XI (5), isochromophilone XI]?
A: antibacterial activity against Bacillus subtilis (in words) (Bacillus subtilis): Weak; IC50 (Bacillus subtilis): 55.6 µM; antibacterial activity against Staphylococcus lentus (in words) (Staphylococcus lentus): Weak; IC50 (Staphylococcus lentus): 78.4 µM; IC50 (Candida albicans; Candida albicans): > 100 µM; IC50 (Septoria tritici; antifungal, 48 h at 20 °C): > 100 µM; inhibition of Trichophyton rubrum (in words) (Trichophyton rubrum): weak activity; IC50 (Trichophyton rubrum): 41.5 µM; IC50 (Phosphodiesterase 4): 8.3 µM; IC50 (Acetylcholinesterase): > 50 µM

Q: Which IC50 (Candida albicans) does the source give for `C[C@@H]1[C@H](O)[C@@H](C)/C=C/C=C/CC/C=C/C=C/C=C/C=C/C(O[C@H]2O[C@H](C)[C@@H](O)[C@H](N)[C@@H]2O)CC2O[C@](O)(CC(O)C(O)CCC(O)CC(O)CC(O)CC(=O)O[C@H]1C)CC(O)C2C(=O)O` (stereo partly drawn) [nystatin, reference compound] here?
A: The IC50 was 5.8 µM.
